Biological target: POLRMT (Homo sapiens (Human), UniProt O00411)
Test: homogeneous TR-FRET assay of mitochondrial transcription (inhibition of POLRMT)
Type: biochemical
Settings: 7.5 nM POLRMT, 15 nM TFB2M, 30 nM TFAM, 0.5 nM DNA template, 500 μM NTPs, 37° C. for 60 minutes
Outline: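 POLRMT transcription from linearized pUC-LSP DNA template; RNA product detected by hybridization of ATTO647 acceptor (1 nM) and biotinylated donor (3 nM) probes plus Europium-streptavidin. Reaction stopped with EDTA/700 mM NaCl buffer, pH 7.5.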

POLRMT, sequence (O00411 42-1230): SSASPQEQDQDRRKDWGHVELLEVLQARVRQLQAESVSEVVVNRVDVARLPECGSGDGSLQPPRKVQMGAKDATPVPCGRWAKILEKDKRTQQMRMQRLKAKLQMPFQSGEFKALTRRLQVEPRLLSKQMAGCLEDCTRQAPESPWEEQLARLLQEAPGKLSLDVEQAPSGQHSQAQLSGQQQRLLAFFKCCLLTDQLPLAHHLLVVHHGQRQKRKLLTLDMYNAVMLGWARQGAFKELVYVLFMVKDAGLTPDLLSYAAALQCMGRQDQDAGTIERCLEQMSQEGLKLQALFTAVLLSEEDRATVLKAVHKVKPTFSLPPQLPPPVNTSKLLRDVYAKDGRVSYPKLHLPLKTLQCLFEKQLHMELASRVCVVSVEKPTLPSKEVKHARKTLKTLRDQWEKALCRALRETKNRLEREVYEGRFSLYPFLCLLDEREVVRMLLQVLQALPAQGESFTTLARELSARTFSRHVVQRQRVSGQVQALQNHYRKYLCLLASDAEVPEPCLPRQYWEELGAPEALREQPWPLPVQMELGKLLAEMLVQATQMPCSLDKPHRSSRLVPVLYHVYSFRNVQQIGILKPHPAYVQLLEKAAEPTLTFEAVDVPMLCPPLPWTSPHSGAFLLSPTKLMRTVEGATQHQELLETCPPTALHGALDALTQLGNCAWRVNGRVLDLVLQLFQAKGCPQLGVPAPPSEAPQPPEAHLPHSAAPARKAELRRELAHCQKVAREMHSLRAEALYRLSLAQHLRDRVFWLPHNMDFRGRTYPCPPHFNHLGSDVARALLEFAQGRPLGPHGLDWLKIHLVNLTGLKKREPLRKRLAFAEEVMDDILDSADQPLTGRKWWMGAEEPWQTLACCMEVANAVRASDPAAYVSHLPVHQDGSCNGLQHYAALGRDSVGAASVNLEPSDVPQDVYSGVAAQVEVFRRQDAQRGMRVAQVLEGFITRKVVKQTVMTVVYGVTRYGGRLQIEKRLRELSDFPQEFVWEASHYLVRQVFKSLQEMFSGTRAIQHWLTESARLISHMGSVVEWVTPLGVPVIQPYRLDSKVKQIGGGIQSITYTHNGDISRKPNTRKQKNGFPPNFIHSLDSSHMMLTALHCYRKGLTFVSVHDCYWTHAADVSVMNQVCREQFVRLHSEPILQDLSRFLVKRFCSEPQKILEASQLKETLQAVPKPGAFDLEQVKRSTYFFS

Cc1ccccc1-c1cc(=O)oc2cc(CC(C)C(=O)N3CCC[C@H](S(N)(=O)=O)C3)ccc12 (single isomer, unassigned) [Example 97] showed an IC50 of 300 nM.

In the case of Cc1ccccc1-c1cc(=O)oc2cc(C(C)CC(=O)N3CCCCC3)ccc12 (centres unmarked) [Example 59, 7-(4-oxo-4-(piperidin-1-yl)butan-2-yl)-4-(o-tolyl)-2H-chromen-2-one], the IC50 is reported as 2000 nM.

For C[C@@H](Cc1ccc2c(-c3ccc(F)cc3Cl)cc(=O)oc2c1)C(=O)N1CCCCC1 [Example 18, (S)-4-(2-chloro-4-fluorophenyl)-7-(2-methyl-3-oxo-3-(piperidin-1-yl)propyl)-2H-chromen-2-one], the IC50 was 200 nM.

O=C(OCc1ccc2c(-c3ccc(F)cc3Cl)cc(=O)oc2c1)N1CCCCC1 [Example 38, (4-(2-chloro-4-fluorophenyl)-2-oxo-2H-chromen-7-yl)methyl piperidine-1-carboxylate] showed an IC50 of 600 nM.

Work on CC[C@H](Nc1ccc2c(-c3ccccc3C)cc(=O)oc2c1)C(N)=O [Example 212, (S)-2-((2-oxo-4-(o-tolyl)-2H-chromen-7-yl)amino)butanamide] yielded an IC50 of 600 nM.

CNC(=O)[C@H]1CCCN(C(=O)C(C)Cc2ccc3c(-c4ccccc4C)cc(=O)oc3c2)C1 (single isomer, unassigned) [Example 92] showed an IC50 of 200 nM.

With CC(=O)NC1CCN(C(=O)c2ccc3c(-c4ccccc4C)cc(=O)oc3c2)CC1 [Example 109, N-(1-(2-oxo-4-(o-tolyl)-2H-chromene-7-carbonyl)piperidin-4-yl)acetamide] the IC50 was 5000 nM.

Compound CCOC(C)c1ccc2c(-c3ccc(F)cc3Cl)cc(=O)oc2c1 (single isomer, unassigned) [Example 42, 4-(2-chloro-4-fluorophenyl)-7-(1-ethoxyethyl)-2H-chromen-2-one] has an IC50 of 6000 nM.

COC[C@H](Nc1ccc2c(-c3ccccc3C)cc(=O)oc2c1)C(=O)O [Example 102, O-methyl-N-(2-oxo-4-(o-tolyl)-2H-chromen-7-yl) serine] showed an IC50 of 3000 nM.

Compound CCOC(=O)[C@@H](C)Nc1ccc2c(-c3ccc(F)cc3Cl)cc(=O)oc2c1 [Example 26, ethyl (4-(2-chloro-4-fluorophenyl)-2-oxo-2H-chromen-7-yl)-D-alaninate] has an IC50 of 400 nM.

Cc1ccccc1-c1cc(=O)oc2cc(CC(C)C(=O)N3CCC[C@H](C(N)=O)C3)ccc12 (single isomer, unassigned) [Example 90] was tested, and the IC50 was 8000 nM.

Cc1ccccc1-c1cc(=O)oc2cc(CNC(=O)C3CCC(C(=O)O)CC3)ccc12 [Example 157, (1S,4S)-4-(((2-oxo-4-(o-tolyl)-2H-chromen-7-yl)methyl)carbamoyl)cyclohexane-1-carboxylic acid] showed an IC50 of 2000 nM.

Compound Cc1ccccc1-c1cc(=O)oc2cc(CC(C)C(=O)N(C)C)ccc12 (single isomer, unassigned) [Example 64, N,N,2-trimethyl-3-(2-oxo-4-(o-tolyl)-2H-chromen-7-yl)propanamide] has an IC50 of 300 nM.

Cc1ccccc1-c1cc(=O)oc2cc(N(C)CC(=O)NCC(F)(F)F)ccc12 [Example 220, 2-(methyl(2-oxo-4-(o-tolyl)-2H-chromen-7-yl)amino)-N-(2,2,2-trifluoroethyl)acetamide] gave an IC50 of 100 nM.

Work on Cc1ccccc1-c1cc(=O)oc2cc(C(=O)N(C)C3CCOCC3)ccc12 [Example 111, N-methyl-2-oxo-N-(tetrahydro-2H-pyran-4-yl)-4-(o-tolyl)-2H-chromene-7-carboxamide] yielded an IC50 of 64000 nM.

Cc1ccccc1-c1cc(=O)oc2cc(CN(C)C(=O)C3CCC(C(=O)O)CC3)ccc12 [Example 158, (1S,4S)-4-(methyl((2-oxo-4-(o-tolyl)-2H-chromen-7-yl)methyl)carbamoyl)cyclohexane-1-carboxylic acid] showed an IC50 of 800 nM.

Cc1ccccc1-c1cc(=O)oc2cc(NCC(=O)N3CCCCC3)ccc12 [Example 72, 7-((2-oxo-2-(piperidin-1-yl)ethyl)amino)-4-(o-tolyl)-2H-chromen-2-one] showed an IC50 of 3000 nM.

In the case of CNC(=O)CN(C)c1ccc2c(-c3ccccc3C)cc(=O)oc2c1 [Example 177, N-methyl-2-(methyl(2-oxo-4-(o-tolyl)-2H-chromen-7-yl)amino)acetamide], the IC50 is reported as 50 nM.

For Cc1ccccc1-c1cc(=O)oc2cc(NCc3nnn[nH]3)ccc12 [Example 184, 7-(((1H-tetrazol-5-yl)methyl)amino)-4-(o-tolyl)-2H-chromen-2-one], the IC50 was 3000 nM.

CN(C)C(=O)N(C)Cc1ccc2c(-c3ccc(F)cc3Cl)cc(=O)oc2c1 [Example 06, 1-((4-(2-chloro-4-fluorophenyl)-2-oxo-2H-chromen-7-yl)methyl)-1,3,3-trimethylurea] showed an IC50 of 3000 nM.

Work on Cc1ccccc1-c1cc(=O)oc2cc(CC(C)C(=O)O)ccc12 (centres unmarked) [Example 52, 2-methyl-3-[4-(o-tolyl)-2-oxo-chromen-7-yl]propanoic acid] yielded an IC50 of 200 nM.

Compound CNC(=O)C1CC1c1ccc2c(-c3ccccc3C)cc(=O)oc2c1 (stereo not drawn) [Example 136, chiral-N-methyl-2-(2-oxo-4-(o-tolyl)-2H-chromen-7-yl)cyclopropane-1-carboxamide] has an IC50 of 200 nM.

In the case of Cc1ccccc1-c1cc(=O)oc2cc(C(C)N(C)C)ccc12 (centres unmarked) [Example 78, 7-(1-(dimethylamino)ethyl)-4-(o-tolyl)-2H-chromen-2-one], the IC50 is reported as 44000 nM.

With CC[C@@H](C(=O)O)N(C)c1ccc2c(-c3ccccc3C)cc(=O)oc2c1 [Example 180, (S)-2-(methyl(2-oxo-4-(o-tolyl)-2H-chromen-7-yl)amino)butanoic acid] the IC50 was 200 nM.

For CC(=O)Nc1ccc2c(-c3ccccc3C)cc(=O)oc2c1 [Example 32, N-(2-oxo-4-(o-tolyl)-2H-chromen-7-yl)acetamide], the IC50 was 400 nM.

For CCNC(=O)[C@@H](C)N(C)c1ccc2c(-c3ccc(F)cc3Cl)cc(=O)oc2c1 [Example 56, (R)-2-((4-(2-chloro-4-fluorophenyl)-2-oxo-2H-chromen-7-yl)(methyl)amino)-N-ethylpropanamide], the IC50 was 200 nM.

Work on Cc1ccccc1-c1cc(=O)oc2cc(C(=O)N3CC(C)(CO)C3)ccc12 [Example 124, 7-(3-(hydroxymethyl)-3-methylazetidine-1-carbonyl)-4-(o-tolyl)-2H-chromen-2-one] yielded an IC50 of 3000 nM.

Work on CC(=O)N(C)C(C)c1ccc2c(-c3ccccc3C)cc(=O)oc2c1 (centres unmarked) [Example 77, N-methyl-N-(1-(2-oxo-4-(o-tolyl)-2H-chromen-7-yl)ethyl)acetamide] yielded an IC50 of 2000 nM.

CC(O)c1ccc2c(-c3ccc(F)cc3Cl)cc(=O)oc2c1 (centres unmarked) [Example 40, 4-(2-chloro-4-fluorophenyl)-7-(1-hydroxyethyl)-2H-chromen-2-one] was tested, and the IC50 was 2000 nM.

Compound Cc1ccccc1-c1cc(=O)oc2cc(CC(C)C(=O)N3CCC(C(=O)O)CC3)ccc12 (single isomer, unassigned) [Example 94, 1-(2-methyl-3-(2-oxo-4-(o-tolyl)-2H-chromen-7-yl)propanoyl)piperidine-4-carboxylic acid] has an IC50 of 200 nM.

Cc1ccccc1-c1cc(=O)oc2cc(NCC(=O)O)ccc12 [Example 71, (2-oxo-4-(o-tolyl)-2H-chromen-7-yl)glycine] showed an IC50 of 6000 nM.

For COCC(C(N)=O)N(C)c1ccc2c(-c3ccccc3C)cc(=O)oc2c1 (centres unmarked) [Example 202, 3-methoxy-2-(methyl(2-oxo-4-(o-tolyl)-2H-chromen-7-yl)amino)propanamide], the IC50 was 2000 nM.

Compound CCOC(=O)[C@H]1CCCN(C(=O)C(C)Cc2ccc3c(-c4ccccc4C)cc(=O)oc3c2)C1 (single isomer, unassigned) [Example 88] has an IC50 of 90 nM.

Compound COC(=O)C(C)Cc1ccc2c(-c3ccc(F)cc3Cl)cc(=O)oc2c1 (centres unmarked) [Example 15, methyl 3-(4-(2-chloro-4-fluorophenyl)-2-oxo-2H-chromen-7-yl)-2-methylpropanoate] has an IC50 of 2000 nM.

For Cc1ccccc1-c1cc(=O)oc2cc(N(C)CC(=O)NCCN(C)C)ccc12 [Example 221, N-(2-(dimethylamino)ethyl)-2-(methyl(2-oxo-4-(o-tolyl)-2H-chromen-7-yl)amino)acetamide], the IC50 was 2000 nM.

For Cc1ccccc1-c1cc(=O)oc2cc(N[C@@H](C)CC(=O)O)ccc12 [Example 149, (S)-3-((2-oxo-4-(o-tolyl)-2H-chromen-7-yl)amino)butanoic acid], the IC50 was 1000 nM.

For Cc1ccccc1-c1cc(=O)oc2cc(NC(C)C(N)=O)ccc12 (single isomer, unassigned) [Example 190, 2-((2-oxo-4-(o-tolyl)-2H-chromen-7-yl)amino)propanamide], the IC50 was 800 nM.

For Cc1ccccc1-c1cc(=O)oc2cc(C#N)ccc12 [Example 43, 2-oxo-4-(o-tolyl)-2H-chromene-7-carbonitrile], the IC50 was 13000 nM.

In the case of COC(C)c1ccc2c(-c3ccccc3C)cc(=O)oc2c1 (centres unmarked) [Example 74, 7-(1-methoxyethyl)-4-(o-tolyl)-2H-chromen-2-one], the IC50 is reported as 700 nM.

For Cc1ccccc1-c1cc(=O)oc2cc(N(C)Cc3ncco3)ccc12 [Example 188, 7-(methyl(oxazol-2-ylmethyl)amino)-4-(o-tolyl)-2H-chromen-2-one], the IC50 was 80 nM.

Cc1ccccc1-c1cc(=O)oc2cc(C(=O)N3CCC(CN(C)C)C3)ccc12 (centres unmarked) [Example 181, 7-(3-((dimethylamino)methyl)pyrrolidine-1-carbonyl)-4-(o-tolyl)-2H-chromen-2-one] gave an IC50 of over 100000 nM.

In the case of CC(=O)N(C)CC1CCN(C(=O)c2ccc3c(-c4ccccc4C)cc(=O)oc3c2)C1 (centres unmarked) [Example 205, N-methyl-N-((1-(2-oxo-4-(o-tolyl)-2H-chromene-7-carbonyl)pyrrolidin-3-yl)methyl)acetamide], the IC50 is reported as over 100000 nM.

Compound Cc1ccccc1-c1cc(=O)oc2cc(CC(C)C(=O)N3CCC[C@H](S(C)(=O)=O)C3)ccc12 (single isomer, unassigned) [Example 85] has an IC50 of 300 nM.

Cc1ccccc1-c1cc(=O)oc2cc(CNC(=O)N3CCC(C(=O)O)CC3)ccc12 [Example 151, 1-(((2-oxo-4-(o-tolyl)-2H-chromen-7-yl)methyl)carbamoyl)piperidine-4-carboxylic acid] showed an IC50 of 3000 nM.

From patent publication US20250326732A1 (Pretzel Therapeutics, Inc., priority 2021, published 2025)
